± gives the uncertainty stated by the source.
Assay: xn = mol fraction of the nth substance listed

Structure (SMILES): O=S1(=O)CCCC1 + O
- viscosity (293.15 K, 101 kPa, x1 = 0.02074): 1.163 ± 0.011 mPa·s
- viscosity (293.15 K, 101 kPa, x1 = 0.04649): 1.387 ± 0.015 mPa·s
- viscosity (293.15 K, 101 kPa, x1 = 0.07703): 1.634 ± 0.021 mPa·s
- viscosity (293.15 K, 101 kPa, x1 = 0.1147): 1.969 ± 0.029 mPa·s
- viscosity (293.15 K, 101 kPa, x1 = 0.1615): 2.405 ± 0.041 mPa·s
- viscosity (293.15 K, 101 kPa, x1 = 0.2247): 3.044 ± 0.057 mPa·s
- viscosity (293.15 K, 101 kPa, x1 = 0.3102): 3.813 ± 0.079 mPa·s
- viscosity (293.15 K, 101 kPa, x1 = 0.4328): 4.899 ± 0.11 mPa·s
- viscosity (293.15 K, 101 kPa, x1 = 0.6323): 6.59 ± 0.16 mPa·s
- viscosity (293.15 K, 101 kPa, x1 = 0.7807): 8.243 ± 0.2 mPa·s
- viscosity (298 K, 100 kPa, x1 = 0.0215): 1 ± 0.1 mPa·s
- viscosity (298 K, 100 kPa, x1 = 0.035): 1.11 ± 0.11 mPa·s
- viscosity (298 K, 100 kPa, x1 = 0.0679): 1.32 ± 0.13 mPa·s
- viscosity (298 K, 100 kPa, x1 = 0.0888): 1.51 ± 0.15 mPa·s
- viscosity (298 K, 100 kPa, x1 = 0.121): 1.74 ± 0.18 mPa·s
- viscosity (298 K, 100 kPa, x1 = 0.221): 2.52 ± 0.26 mPa·s
- viscosity (298 K, 100 kPa, x1 = 0.569): 5.19 ± 0.53 mPa·s
- viscosity (298.15 K, 101 kPa, x1 = 0.02074): 1.038 ± 0.01 mPa·s
- viscosity (298.15 K, 101 kPa, x1 = 0.02077): 1.01 ± 0.3 mPa·s
- viscosity (298.15 K, 101 kPa, x1 = 0.04267): 1.17 ± 0.35 mPa·s
- viscosity (298.15 K, 101 kPa, x1 = 0.04649): 1.221 ± 0.014 mPa·s
- viscosity (298.15 K, 101 kPa, x1 = 0.07103): 1.59 ± 0.48 mPa·s
- viscosity (298.15 K, 101 kPa, x1 = 0.07703): 1.458 ± 0.019 mPa·s
- viscosity (298.15 K, 101 kPa, x1 = 0.09929): 1.64 ± 0.49 mPa·s
- viscosity (298.15 K, 101 kPa, x1 = 0.1147): 1.735 ± 0.026 mPa·s
- viscosity (298.15 K, 101 kPa, x1 = 0.1615): 2.129 ± 0.036 mPa·s
- viscosity (298.15 K, 101 kPa, x1 = 0.2247): 2.656 ± 0.05 mPa·s
- viscosity (298.15 K, 101 kPa, x1 = 0.25): 2.738 ± 0.038 mPa·s
- viscosity (298.15 K, 101 kPa, x1 = 0.3102): 3.347 ± 0.069 mPa·s
- viscosity (298.15 K, 101 kPa, x1 = 0.4328): 4.263 ± 0.096 mPa·s
- viscosity (298.15 K, 101 kPa, x1 = 0.5): 4.583 ± 0.067 mPa·s
- viscosity (298.15 K, 101 kPa, x1 = 0.6323): 5.775 ± 0.14 mPa·s
- viscosity (298.15 K, 101 kPa, x1 = 0.75): 6.772 ± 0.086 mPa·s
- viscosity (298.15 K, 101 kPa, x1 = 0.7807): 7.049 ± 0.18 mPa·s
- viscosity (298.15 K, 101 kPa, x1 = 0.85): 7.49 ± 0.089 mPa·s
- viscosity (303.15 K, 101 kPa, x1 = 0.0147): 0.8884 ± 0.023 mPa·s
- viscosity (303.15 K, 101 kPa, x1 = 0.02074): 0.927 ± 0.009 mPa·s
- viscosity (303.15 K, 101 kPa, x1 = 0.02077): 0.91 ± 0.27 mPa·s
- viscosity (303.15 K, 101 kPa, x1 = 0.0208): 0.9245 ± 0.024 mPa·s
- viscosity (303.15 K, 101 kPa, x1 = 0.04267): 1.04 ± 0.31 mPa·s
- viscosity (303.15 K, 101 kPa, x1 = 0.04649): 1.093 ± 0.012 mPa·s
- viscosity (303.15 K, 101 kPa, x1 = 0.0701): 1.255 ± 0.033 mPa·s
- viscosity (303.15 K, 101 kPa, x1 = 0.07103): 1.34 ± 0.4 mPa·s
- viscosity (303.15 K, 101 kPa, x1 = 0.0744): 1.273 ± 0.033 mPa·s
- viscosity (303.15 K, 101 kPa, x1 = 0.0958): 1.429 ± 0.037 mPa·s
- viscosity (303.15 K, 101 kPa, x1 = 0.09929): 1.44 ± 0.43 mPa·s
- viscosity (303.15 K, 101 kPa, x1 = 0.1435): 1.761 ± 0.046 mPa·s
- viscosity (303.15 K, 101 kPa, x1 = 0.1586): 1.852 ± 0.048 mPa·s
- viscosity (303.15 K, 101 kPa, x1 = 0.1924): 2.101 ± 0.055 mPa·s
- viscosity (303.15 K, 101 kPa, x1 = 0.25): 2.287 ± 0.03 mPa·s
- viscosity (303.15 K, 101 kPa, x1 = 0.3022): 2.856 ± 0.074 mPa·s
- viscosity (303.15 K, 101 kPa, x1 = 0.4496): 3.865 ± 0.1 mPa·s
- viscosity (303.15 K, 101 kPa, x1 = 0.5): 3.797 ± 0.05 mPa·s
- viscosity (303.15 K, 101 kPa, x1 = 0.6077): 4.963 ± 0.13 mPa·s
- viscosity (303.15 K, 101 kPa, x1 = 0.6106): 5.004 ± 0.13 mPa·s
- viscosity (303.15 K, 101 kPa, x1 = 0.749): 6.085 ± 0.16 mPa·s
- viscosity (303.15 K, 101 kPa, x1 = 0.75): 5.994 ± 0.077 mPa·s
- viscosity (303.15 K, 101 kPa, x1 = 0.7813): 6.555 ± 0.17 mPa·s
- viscosity (303.15 K, 101 kPa, x1 = 0.85): 7.236 ± 0.092 mPa·s
- viscosity (313.15 K, 101 kPa, x1 = 0.0147): 0.7245 ± 0.019 mPa·s
- viscosity (313.15 K, 101 kPa, x1 = 0.02077): 0.74 ± 0.22 mPa·s
- viscosity (313.15 K, 101 kPa, x1 = 0.0208): 0.753 ± 0.02 mPa·s
- viscosity (313.15 K, 101 kPa, x1 = 0.0701): 1.014 ± 0.026 mPa·s
- viscosity (313.15 K, 101 kPa, x1 = 0.07103): 1.01 ± 0.3 mPa·s
- viscosity (313.15 K, 101 kPa, x1 = 0.0744): 1.029 ± 0.027 mPa·s
- viscosity (313.15 K, 101 kPa, x1 = 0.0958): 1.152 ± 0.03 mPa·s
- viscosity (313.15 K, 101 kPa, x1 = 0.09929): 1.15 ± 0.35 mPa·s
- viscosity (313.15 K, 101 kPa, x1 = 0.1435): 1.414 ± 0.037 mPa·s
- viscosity (313.15 K, 101 kPa, x1 = 0.1586): 1.484 ± 0.039 mPa·s
- viscosity (313.15 K, 101 kPa, x1 = 0.1924): 1.681 ± 0.044 mPa·s
- viscosity (313.15 K, 101 kPa, x1 = 0.25): 1.928 ± 0.025 mPa·s
- viscosity (313.15 K, 101 kPa, x1 = 0.29): 2.219 ± 0.058 mPa·s
- viscosity (313.15 K, 101 kPa, x1 = 0.3022): 2.267 ± 0.059 mPa·s
- viscosity (313.15 K, 101 kPa, x1 = 0.4496): 3.059 ± 0.08 mPa·s
- viscosity (313.15 K, 101 kPa, x1 = 0.5): 3.212 ± 0.041 mPa·s
- viscosity (313.15 K, 101 kPa, x1 = 0.6077): 3.923 ± 0.1 mPa·s
- viscosity (313.15 K, 101 kPa, x1 = 0.6106): 3.962 ± 0.11 mPa·s
- viscosity (313.15 K, 101 kPa, x1 = 0.749): 4.807 ± 0.12 mPa·s
- viscosity (313.15 K, 101 kPa, x1 = 0.75): 4.743 ± 0.064 mPa·s
- viscosity (313.15 K, 101 kPa, x1 = 0.7813): 5.182 ± 0.14 mPa·s
- viscosity (313.15 K, 101 kPa, x1 = 0.85): 5.24 ± 0.072 mPa·s
- viscosity (323.15 K, 101 kPa, x1 = 0.0147): 0.6051 ± 0.016 mPa·s
- viscosity (323.15 K, 101 kPa, x1 = 0.02077): 0.63 ± 0.19 mPa·s
- viscosity (323.15 K, 101 kPa, x1 = 0.0208): 0.629 ± 0.017 mPa·s
- viscosity (323.15 K, 101 kPa, x1 = 0.04267): 0.7 ± 0.21 mPa·s
- viscosity (323.15 K, 101 kPa, x1 = 0.0701): 0.841 ± 0.022 mPa·s
- viscosity (323.15 K, 101 kPa, x1 = 0.07103): 0.84 ± 0.25 mPa·s
- viscosity (323.15 K, 101 kPa, x1 = 0.0744): 0.8536 ± 0.022 mPa·s
- viscosity (323.15 K, 101 kPa, x1 = 0.0958): 0.9537 ± 0.025 mPa·s
- viscosity (323.15 K, 101 kPa, x1 = 0.09929): 0.96 ± 0.29 mPa·s
- viscosity (323.15 K, 101 kPa, x1 = 0.1435): 1.165 ± 0.03 mPa·s
- viscosity (323.15 K, 101 kPa, x1 = 0.1586): 1.221 ± 0.032 mPa·s
- viscosity (323.15 K, 101 kPa, x1 = 0.1924): 1.379 ± 0.036 mPa·s
- viscosity (323.15 K, 101 kPa, x1 = 0.29): 1.814 ± 0.047 mPa·s
- viscosity (323.15 K, 101 kPa, x1 = 0.3022): 1.85 ± 0.048 mPa·s
- viscosity (323.15 K, 101 kPa, x1 = 0.4496): 2.486 ± 0.065 mPa·s
- viscosity (323.15 K, 101 kPa, x1 = 0.6077): 3.184 ± 0.083 mPa·s
- viscosity (323.15 K, 101 kPa, x1 = 0.6106): 3.217 ± 0.084 mPa·s
- viscosity (323.15 K, 101 kPa, x1 = 0.749): 3.896 ± 0.1 mPa·s
- viscosity (323.15 K, 101 kPa, x1 = 0.7813): 4.197 ± 0.11 mPa·s

Source: the CheMixHub viscosity set
